Laboratory results as given in patent US20160067161A1, “COSMETIC OR PHARMACEUTICAL COMPOSITION FOR RESISTING SKIN AGEING THROUGH AN ANTI-INFLAMMATORY ACTION” (GIULIANI S.P.A., priority 2013, published 2016).

How the values were obtained:
TNF-α = test: Anti-inflammatory test: TNF-α gene expression by qRT-PCR in LPS-treated NCTC2544 keratinocytes; assay type: cell-based, human; conditions: for TNF-α expression: NCTC2544 cells + LPS 5 μg/ml, 16 hours of treatment
Description: An immortalized line of human keratinocytes NCTC2544 is used (Perry, V. P., Sanford, K. K., Evans, V. J., Hyatt, G. W., Earle, W. R., 1957: Establishment of clones of epithelial cells from human skin. J Natl Cancer Inst. 18 (5): 709-717) cultured in sterile flasks ([…]), incubated at 37° C. in a humid atmosphere at 5% CO2 in MEM (Minimum Essential Medium) added with bovine fetal serum (FBS), 2 mm L-glutamine, 1% non-essential amino acids, in the presence of 1% penicillin and streptomycin.
A 1:3 split is done every 2 days upon achieving the monolayer by washing with 1× PBS (phosphate buffer without Ca^2+ and Mg^2+) and detachment of cells with a trypsin-EDTA solution at 37° C. for 2 minutes.
Negative control: human keratinocytes NCTC2544 cultured in EMEM (EBSS) at 2.5% FBS, supplemented with 1% L-glutamine 2 mM, 1% solution of amino acids and 1% mixture of penicillin (10,000 U/ml)/streptomycin (10,000 Ug/ml) at 37° C., 5% CO2. Positive control: human keratinocytes NCTC2544 treated with lipopolysaccharide (LPS, 5 μg/ml) in EMEM (EBSS) at 2.5% FBS, supplemented with 1% L-glutamine 2 mM, 1% solution of amino acids and 1% mixture of penicillin (10,000 U/ml)/streptomycin (10,000 Ug/ml) at 37° C., 5% CO2.
The gene expression of TNF-α on NCTC2544 cells treated with the samples was evaluated by qRT-PCR.
The analysis of gene expression involves four steps:
1. Treatment of cells with the samples for 16 and 24 hours;
3. Retrotranscription in cDNA;
In the experimental conditions, in relation with the results obtained in a previous MTT test, samples of spermidine and N^1-methyl-spermidine were tested at the following concentrations: 1 μM, 500 nM and 1 mM (final concentration in the medium). Said positive and negative controls were also tested.
When the human keratinocyte cells NCTC 2544 have reached about 80% confluence, they are detached with trypsin/EDTA and seeded at a density of 1×10^6 cells/ml in 12-well plates and incubated at 37° C., 5% CO2 (24 h).
The above samples of spermidine and N^1-methyl-spermidine were dissolved in EMEM, supplemented with 2.5% FCS, 1% 2 mM L-glutamine, 1% NEAA solution and 1% penicillin (10,000 U/ml)/streptomycin ([…]).
The controls, containing only culture medium (negative control) and culture medium plus LPS ([…]) (positive control), were included in each plate. The cells were exposed to the action of the samples of spermidine and N^1-methyl-spermidine at the above concentrations of 1 μM, 500 nM and 1 mM: a total of six samples.
LPS at a concentration of 5 μg/ml was added to each well (except in the negative control). Each sample was tested in replicate.
With reference to the graphs in FIGS. 4 and 5, samples of further compounds of the invention as specified below were subjected to anti-inflammatory test on an immortalized line of human keratinocytes NCTC2544 substantially as described above, to the general part whereof reference shall be made.
The controls containing only culture medium (negative control) and culture medium plus LPS (5 μg/ml) (positive control), were included in each plate.
The cells were exposed to the action of samples of the compounds N^1-ethylspermidine, N^1-propylspermidine, N^1-isobutylspermidine at the concentrations of 1 nM and 1 μM.
The gene expression data were obtained by RT-PCR.

NCTC 2544 cells = test: ROS antioxidant test (DCFH-DA spectrofluorometry) on NCTC 2544 cells; assay type: cell-based, human; conditions: 500 μM, 1.5 hours (FIG. 3); for decrease in intracellular concentration of ROS produced compared with H2O2 control: test compound at 500 nM, 1 μM, 1 mM, α-tocopherol 250 μg/ml (580 μM)
Description: Samples of a compound of the invention, N^1-methylspermidine trihydrochloride salt, i.e. N-(3-aminopropyl)-N^1-methyl-1,4-butanediamine 3HCl, were subjected to the following antioxidant test to reactive oxygen species (ROS).
The production of ROS was monitored spectrofluorometrically using 2′,7′-dichlorofluorescein diacetate (DCFH-DA), as described by Tobi et al. (Tobi S E, Paul N, T McMillan J. J Photochem Photobiol, B 2000: 57: 102-112).
The NCTC 2544 cells (about 80% confluence) were detached with trypsin/EDTA and seeded at a density of 5×10^4 cells per well in 96-well plates. Subsequently, the cells were treated with samples of N^1-methylspermidine, at the following concentrations: 500 nM, 1 μm and 500 μm, 1 mM (final concentration in the culture medium).
α-tocopherol (250 μg/ml, 580 μm) was used as a comparison of the antioxidant activity.
The plates were incubated at 37° C. in 5% CO2 for 1.5 hours. Cells cultured on basal medium with 2.5% FBS were used as a control.
The results are shown in the graph of FIG. 3, wherein N^1-methylspermidine trichydrochloride salt is for brevity indicated as ‘methylspermidine’.

NCCCCNCCCN [spermidine, reference compound]
TNF-α expression (TNF-α; 1 nM (FIG. 1)): 13.99%

CN(CCCN)CCCCN.Cl.Cl.Cl [N-(3-aminopropyl)-N^1-methyl-1,4-butanediamine 3HCl]
antioxidant activity compared with α-tocopherol (580 μM) (NCTC 2544 cells): higher antioxidant activity
decrease in intracellular concentration of ROS produced compared with H2O2 control (NCTC 2544 cells): decrease substantially comparable

Cc1c(C)c2c(c(C)c1O)CC[C@@](C)(CCC[C@H](C)CCC[C@H](C)CCCC(C)C)O2 [α-tocopherol, reference compound]
decrease in intracellular concentration of ROS produced compared with H2O2 control (NCTC 2544 cells): decrease substantially comparable

CN(CCCN)CCCCN [N^1-methylspermidine, N-(3-aminopropyl)-N^1-methyl-1,4-butanediamine]
anti-inflammatory effects after 24 hours compared with 16 hours (TNF-α; 24 hours of treatment (FIG. 2)): remain almost unchanged
anti-inflammatory effect compared with spermidine (TNF-α; 24 hours of treatment, 500 nM (FIG. 2)): significantly higher anti-inflammatory effect
TNF-α expression (TNF-α; 1 nM (FIG. 1)): 7.94%
TNF-α expression (TNF-α; 500 nM (FIG. 1)): 1.52%
anti-inflammatory effect (TNF-α gene expression) (TNF-α; all concentrations examined, 16 and 24 hours): anti-inflammatory effect
